Each structure is given as a SMILES string. Read-outs that look alike come from different tables or passages of the source.

The source of these data is publication PMC9502836, “Zika Virus Inhibitors Based on a 1,3-Disubstituted 1H-Pyrazolo[3,4-d]pyrimidine-amine Scaffold” (Molecules, 2022).

For one data set, the system named is Huh7 cells. Also noted: method as in PMID 34206327. Conditions: cited from earlier work.
Data set [1] concerns ZIKV. Also noted: method as in PMID 34206327. As to conditions: Huh7 cells, cited from earlier work; for EC50: read-out: Titer Reduction Assay EC50.
In data set [2] the test system is ZIKV. Nature of the data set: ZIKV titer reduction assay (plaque assay of supernatants) in Huh7 cells. Type of data set: cell-based. As to conditions: Zika virus; for inhibition at 8.5 µM: Huh-7, 72 h, read-out: Titer Reduction Assay % at 8.5 µM. The procedure: (§1) In the current study, we continued to use our previously reported luciferase-based ZIKV reporter assay as a primary antiviral screening, by which newly synthesized compounds were tested (at 10 µM) along with NITD008 (Figure 1, at 1 µM), a flavivirus RNA-dependent RNA polymerase (RdRp) inhibitor, and NSC 12155 (Figure 1, at 10 µM), a flavivirus NS5 methyltransferase (MTase) inhibitor, as reference compounds (Table 1). […] For active compounds (>60% titer-reduction), dose-response experiments were performed to determine EC50 (half maximal effective concentration, a concentration that is needed to cause half of the maximum possible pharmacological effect) and CC50 (half cytotoxic concentration, a concentration that is required to reduce cell viability by 50%) values. For selected compounds, EC50 values in the reporter assay were also measured.
(§2) The ZIKV reporter assay and titer-reduction assay were performed as previously reported. Briefly, Huh7 cells (1.5 × 10^4) were seeded in a 96-well plate and inoculated with a luciferase reporter ZIKV (MOI=0.2). After two hours, the cells were treated with medium containing the compound (10 µM). After 3 days post-infection, the cells were lysed, the Nanoluc signal was detected using the Nano-Glo® luciferase assay (Promega), then measured using a Neo 2 plate reader (BioTek, Winooski, VT, USA). For titer-reduction assays, 1.5 × 10^5 Huh7 cell were seeded in a 24-well plate. Next day, the cells were inoculated with ZIKV for two hours. The inoculum was replaced with compound-containing medium (8.5 µM) and incubated for 3 days. Supernatants were collected and viral titers were estimated by plaque assay.

The test system of data set [3] is luciferase reporter ZIKV. Nature of the data set: luciferase-based ZIKV reporter assay in Huh7 cells. The class given is cell-based. Conditions: Zika virus; for inhibition at 10 µM: Huh-7, 72 h, read-out: ZIKV Reporter Assay Inhibition (%) at 10 µM. How it is done:
as §1, §2
(In general: In a reporter assay the amount or activity of a reporter protein is the signal.)

Data set [4] can be described thus: Cell viability (CC50) assay, MTS-based. Conditions: human; for viability at 3 days, 10 µM: 10 µM compound, Huh7 cells, read-out: ZIKV Reporter Assay Viability (%) at 10 µM. The procedure:
as §1
The cell viability assay was performed in Huh7 cells as previously reported. Briefly, non-infected Huh7 cells were treated with the testing compounds for 3 days. Viability was measured by absorbance at […] using the MTS-based tetrazolium reduction CellTiter 96 Aqueous Non-Radioactive cell proliferation assay (Promega).

Data set [5] deals with luciferase reporter ZIKV. As to conditions: Huh7 cells, cited from earlier work.
The mark [6] stands for this setting: 8.5 µM compound, Huh7 cells, 3 days.

Broadly, the CC50 is the concentration that lowers cell viability or growth by half. As a reminder, the EC50 is the concentration at which the effect is half-maximal. For `O=[N+]([O-])c1ccc(Cn2ccc3c(NCc4cccc(Cl)c4)ncnc32)cc1` [Compound 1], the CC50 in the data set with Huh7 cells is 20 µM. Moreover, the half-maximal effective concentration (EC50) in the data set on ZIKV [1] is 5.2 µM.
One may read the viability as the share of living cells, or the viability signal relative to a control. Turning to `Nc1ncnc2c1c(COc1ccccc1)nn2Cc1ccc(Cl)nc1` [Compound 21, 1-((6-Chloropyridin-3-yl)methyl)-3-(phenoxymethyl)-1H-pyrazolo[3,4-d]pyrimidin-4-amine], the inhibition at 8.5 µM with ZIKV [2] stood at 74%. The EC50 in the data set with ZIKV [2] (Huh-7, read-out: Titer Reduction Assay EC50) came to 5.2 µM. The inhibition at 10 µM in the data set on luciferase reporter ZIKV [3] stood at 82%. Further, the EC50 in the data set on luciferase reporter ZIKV [3] (Huh-7, read-out: ZIKV Reporter Assay EC50) was 3.5 µM. For the same compound, in data set [4], the CC50 at 3 days turned out to be 25 µM and the viability at 3 days, 10 µM was found to be 64%.
Turning to `Nc1ccc(Cn2nc(COc3ccccc3)c3c(N)ncnc32)cn1` [Compound 23, 1-((6-Aminopyridin-3-yl)methyl)-3-(phenoxymethyl)-1H-pyrazolo[3,4-d]pyrimidin-4-amine], the inhibition at 8.5 µM in the data set on ZIKV [2] (setting [6]) came out at 20%. In the data set on luciferase reporter ZIKV [3], the inhibition at 10 µM stood at 49%. In data set [4], the viability at 3 days, 10 µM turned out to be 82%.
In the same order, the values of `Cc1cccc(OCc2nn(Cc3ccc([N+](=O)[O-])cc3)c3ncnc(N)c23)c1` [Compound 27, 1-(4-Nitrobenzyl)-3-((m-tolyloxy)methyl)-1H-pyrazolo[3,4-d]pyrimidin-4-amine] are 53%, 71% and 82%.
Consider `Cc1ccc(OCc2nn(Cc3ccc([N+](=O)[O-])cc3)c3ncnc(N)c23)cc1` [Compound 28, 1-(4-Nitrobenzyl)-3-((p-tolyloxy)methyl)-1H-pyrazolo[3,4-d]pyrimidin-4-amine], for which, in the data set with ZIKV [2] (setting [6]), the inhibition at 8.5 µM turned out to be 34%. Further, the inhibition at 10 µM in the data set with luciferase reporter ZIKV [3] turned out to be 65%. For the same compound, in data set [4], the viability at 3 days, 10 µM turned out to be 85%.
Take `Nc1ncnc2c1c(COc1cccc(Cl)c1)nn2Cc1ccc([N+](=O)[O-])cc1` [Compound 30, 3-((3-Chlorophenoxy)methyl)-1-(4-nitrobenzyl)-1H-pyrazolo[3,4-d]pyrimidin-4-amine]: the inhibition at 8.5 µM with ZIKV [2] (setting [6]) came to 11%. Moreover, the inhibition at 10 µM in the data set with luciferase reporter ZIKV [3] was determined as 52%. Also, the viability at 3 days, 10 µM in data set [4] turned out to be 93%.
`Nc1ncnc2c1c(COc1ccc(Cl)cc1)nn2Cc1ccc([N+](=O)[O-])cc1` [Compound 31, 3-((4-Chlorophenoxy)methyl)-1-(4-nitrobenzyl)-1H-pyrazolo[3,4-d]pyrimidin-4-amine]: the inhibition at 8.5 µM in the data set on ZIKV [2] (setting [6]) came out at 40%. Besides, the inhibition at 10 µM with luciferase reporter ZIKV [3] amounted to 60%. Further, the viability at 3 days, 10 µM in data set [4] came out at 94%.
Turning to `Cc1cc(N)c2cc(NC(=O)Nc3ccc4nc(C)cc(N)c4c3)ccc2n1` [NSC 12155], the “ZIKV Reporter Assay Viability (%) at 10 µM” value in the data set on Huh7 cells (10 µM) was 70%. For the same compound, the 50% cytotoxic concentration (CC50) with Huh7 cells is 23 µM. The “Titer Reduction Assay % at 8.5 µM” value with ZIKV [1] (8.5 µM) is on record as 72%. The concentration for a half-maximal effect (EC50) in the data set with ZIKV [1] is 7.34 µM; on luciferase reporter ZIKV [5], 2.18 µM. Also, the “ZIKV Reporter Assay Inhibition (%) at 10 µM” value in the data set with luciferase reporter ZIKV [5] (10 µM) is reported as 68%.
